Data on 33 compounds can be found in ChEMBL document CHEMBL1130926, “Novel H3 receptor antagonists. Sulfonamide homologs of histamine” (Bioorg Med Chem Lett, 1998).

The source made the active and inactive calls. The rule behind the calls is not given here.

The target in experiment [1] is T1, Histamine H3 receptor (Cavia porcellus, UniProt Q9JI35). In words: H3 -antagonist potency determined in electrically stimulated guinea-pig ileum. In kind it is functional, tissue-based. The following applies: read-out: pA2 (converted).
T1 sequence (Q9JI35 whole entry): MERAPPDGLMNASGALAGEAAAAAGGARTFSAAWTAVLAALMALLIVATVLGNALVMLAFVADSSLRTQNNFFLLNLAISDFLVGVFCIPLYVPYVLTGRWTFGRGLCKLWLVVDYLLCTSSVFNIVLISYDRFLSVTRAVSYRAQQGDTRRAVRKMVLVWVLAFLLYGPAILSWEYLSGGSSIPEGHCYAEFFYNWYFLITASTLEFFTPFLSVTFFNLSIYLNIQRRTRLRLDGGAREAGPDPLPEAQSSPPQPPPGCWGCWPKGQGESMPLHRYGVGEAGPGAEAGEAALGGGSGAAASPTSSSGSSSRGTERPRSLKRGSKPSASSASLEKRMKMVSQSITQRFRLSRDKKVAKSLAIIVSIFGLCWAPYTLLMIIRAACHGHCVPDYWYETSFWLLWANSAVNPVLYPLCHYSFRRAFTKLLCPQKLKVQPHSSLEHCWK
Experiment [2] addresses T1, Histamine H3 receptor. In words: Inhibition of [3H]Nalpha-methylhistamine binding to H3 receptor in guinea-pig brain membranes. In kind it is cell membranes, Membrane.
For experiment [3], the target named is Histamine H3 receptor (Cavia porcellus) (UniProt Q9JI35). In words: Evaluated in vivo for its H3 receptor antagonist activity in the CNS hypertension model at 3 mg/kg dose. In kind it is functional, organism-based. The arrangement: dose 3 mg/kg.
Sequence of Histamine H3 receptor (Cavia porcellus) (Q9JI35 whole entry): as above
Experiment [4] has as its target Histamine H1 receptor (Cavia porcellus, UniProt P31389). In words: Evaluated for the percent binding affinity against H1 receptor by an H1 histamine-mediated bronchospasm. The arrangement: concentration or dose not given beside the values.
In experiment [5] the test system is Cavia porcellus. In words: Compound was evaluated in vivo for its H3 receptor antagonist activity in the CNS hypertension model; NA: Not active. In kind it is functional, organism-based.
Experiment [6] has as its target Histamine H3 receptor (Cavia porcellus) (UniProt Q9JI35). In words: Evaluated in vivo for its H3 receptor antagonist activity in the CNS hypertension model. The class given is functional, organism-based.

Sequence of Histamine H1 receptor (P31389 whole entry): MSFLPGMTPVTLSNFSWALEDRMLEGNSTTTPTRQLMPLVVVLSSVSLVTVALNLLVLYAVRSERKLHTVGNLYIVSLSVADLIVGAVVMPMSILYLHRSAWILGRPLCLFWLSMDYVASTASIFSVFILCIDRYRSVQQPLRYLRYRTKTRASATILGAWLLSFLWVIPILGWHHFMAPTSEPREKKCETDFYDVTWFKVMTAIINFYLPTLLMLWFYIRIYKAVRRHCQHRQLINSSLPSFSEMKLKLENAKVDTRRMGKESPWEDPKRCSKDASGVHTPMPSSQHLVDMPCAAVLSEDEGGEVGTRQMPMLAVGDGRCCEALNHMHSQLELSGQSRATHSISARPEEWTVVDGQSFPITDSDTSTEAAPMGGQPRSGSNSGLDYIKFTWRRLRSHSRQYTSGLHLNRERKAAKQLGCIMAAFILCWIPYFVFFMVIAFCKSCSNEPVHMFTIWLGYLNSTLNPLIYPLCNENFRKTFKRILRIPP

For orientation: Ki means the equilibrium dissociation constant of an inhibitor or competing ligand from its target. In the case of `O=S(=O)(c1ccc(Cl)cc1)N(CCCCc1c[nH]cn1)CCCCn1ccnc1`, the Kb in experiment [1] is 7.94 nM. For the same compound, in experiment [2], the affinity, expressed as Ki, was 2.5 nM.
For `O=S(=O)(NCCCCCc1cnc[nH]1)c1ccc(Cl)cc1`, in experiment [1], the Kb is 100 nM. The compound also displayed a Ki in experiment [2] of 11.5 nM.
For orientation: inhibition means the drop in the measured response relative to a control, in per cent. `O=S(=O)(NCCCCc1c[nH]cn1)c1cccc(Cl)c1`: in experiment [3], the inhibition was 8%. In experiment [1], the Kb was 50.1 nM. For the same compound, the affinity in experiment [2], expressed as Ki, was 8.5 nM.
Compound `O=[N+]([O-])c1ccccc1CS(=O)(=O)NCCCCc1cnc[nH]1` came in with an inhibition constant Ki in experiment [2] of 42 nM.
A word on the ED50: it is the dose that gives a 50% effect, or the effect in half of the subjects. In experiment [4], `O=S(=O)(NCCCCc1c[nH]cn1)c1ccccc1` registered an inhibition of 5%. Besides, the ED50 result in experiment [5] is “inactive”.
On to `O=S(=O)(NCCCCc1cnc[nH]1)c1ccccc1`, for which, in experiment [1], the Kb was 31.6 nM. The compound also registered a Ki in experiment [2] of 10.5 nM.
As for `O=S(=O)(NCCCc1c[nH]cn1)c1ccc(Cl)cc1`, the inhibition in experiment [4] is recorded as 21%. In experiment [2], this compound yielded a Ki of 380 nM.
In the case of `O=[N+]([O-])c1ccc(S(=O)(=O)NCCCCc2cnc[nH]2)cc1`, the Kb in experiment [1] was 20 nM. This compound also had a Ki in experiment [2] of 16.5 nM.
With `CN(CCCCc1c[nH]cn1)S(=O)(=O)c1ccc(Cl)cc1`, the inhibition in experiment [4] turned out to be 32%; in experiment [3], 43%. Also, in experiment [1], the Kb was 5.01 nM. In experiment [2], this compound displayed an inhibition constant Ki of 4 nM.
Regarding `O=S(=O)(NCCCCCc1c[nH]cn1)c1ccc(Cl)cc1`, the inhibition in experiment [4] is listed as 37%. Also, the 50% effect level in experiment [6] (ED50) was put at a dose of 3 mg/kg.
On to `Cc1ccc(S(=O)(=O)NCCCCc2cnc[nH]2)cc1`, for which the Kb in experiment [1] was 25.1 nM. The compound also came in with a Ki in experiment [2] of 17 nM.
`O=S(=O)(NCCCCc1cnc[nH]1)c1cccs1` had an inhibition constant Ki in experiment [2] of 45 nM.
In the case of `O=[N+]([O-])c1ccc(S(=O)(=O)NCCCCc2c[nH]cn2)cc1`, the inhibition in experiment [4] stood at 24%. Besides, the ED50 entry in experiment [5] is “inactive”.
With `CC(C)S(=O)(=O)NCCCCc1cnc[nH]1`, the Kb in experiment [1] was 63.1 nM. The Ki in experiment [2] is 22 nM.
In experiment [4], `O=[N+]([O-])c1ccc(S(=O)(=O)NCCCCCc2c[nH]cn2)cc1` had an inhibition of 25%. In experiment [6], this compound registered an ED50 of 2.7 mg/kg. In addition, the Kb in experiment [1] is 7.94 nM. Moreover, affinity in experiment [2] was put at a Ki of 5.5 nM.
For the compound `COc1ccc(S(=O)(=O)NCCCCc2cnc[nH]2)cc1`, in experiment [2], affinity was put at a Ki of 51 nM.
Take `O=S(=O)(c1ccc(Cl)cc1)N(CCCCc1c[nH]cn1)Cc1ccc(Cl)cc1`: the inhibition in experiment [4] amounted to 45%. The ED50 in experiment [6] amounted to 3 mg/kg. Further, in experiment [1], the Kb was 15.8 nM. This compound displayed a Ki in experiment [2] of 24 nM.
In experiment [2], `Cn1cc[n+](S(=O)(=O)NCCCCc2c[nH]cn2)c1` came in with a Ki of 43 nM.
For `O=S(=O)(Cc1ccccc1)NCCCCc1c[nH]cn1`, the figures for the inhibition in experiment [4] and in experiment [3] were 3% and 17%, respectively. Besides, the Kb in experiment [1] is 31.6 nM. The compound further showed a Ki in experiment [2] of 6 nM.
Compound `O=[N+]([O-])c1ccc(S(=O)(=O)NCCCc2c[nH]cn2)cc1` yielded an inhibition in experiment [4] of 36%. The compound also registered a Ki in experiment [2] of 93 nM.
Regarding `O=S(=O)(NCCCCc1c[nH]cn1)c1ccc(Cl)cc1`, in experiment [4], the inhibition is 48%. In experiment [6], this compound yielded an ED50 of 2.2 mg/kg.
`O=S(=O)(NCCCc1cnc[nH]1)c1cccs1`: the Ki in experiment [2] is 550 nM.
Take `O=S(=O)(NCCCCCc1c[nH]cn1)c1ccccc1`: the inhibition in experiment [4] was found to be 19%. Further, in experiment [1], the Kb was 63.1 nM. This compound yielded a Ki in experiment [2] of 24.5 nM.
`O=S(=O)(NCCCCc1cnc[nH]1)c1ccc(Cl)cc1`: the Kb in experiment [1] was 12.6 nM. Also, in experiment [2], the affinity, expressed as Ki, was 9 nM.
Compound `Nc1ccc(S(=O)(=O)NCCCCc2c[nH]cn2)cc1` gave a Ki in experiment [2] of 99 nM.
`O=S(=O)(NCCCCc1c[nH]cn1)c1ccc(F)cc1` yielded an inhibition in experiment [4] of 19%. For the same compound, the Kb in experiment [1] was 158 nM. The same compound displayed a Ki in experiment [2] of 20.5 nM.
`Cc1ccc(S(=O)(=O)NCCCCc2c[nH]cn2)cc1` yielded an inhibition in experiment [3] of 16%.
`O=S(=O)(NCCCCc1c[nH]cn1)c1ccc(C(F)(F)F)cc1` returned an inhibition in experiment [4] of 1%. Further, the ED50 in experiment [6] amounted to 3 mg/kg. For the same compound, the Kb in experiment [1] is 3.98 nM. Moreover, in experiment [2], the Ki was found to be 10 nM.
As for `CC(C)(C)c1ccc(S(=O)(=O)NCCCCCc2c[nH]cn2)cc1`, the inhibition in experiment [4] turned out to be 14%; in experiment [3], 40%. Further, in experiment [1], the Kb is 10 nM. In experiment [2], this compound came in with a Ki of 5 nM.
The compound `CC(C)(C)c1ccc(S(=O)(=O)NCCCc2c[nH]cn2)cc1` came in with an inhibition in experiment [4] of 30%. The compound also had an inhibition constant (Ki) in experiment [2] of 45.5 nM.
As to `CC(C)(C)c1ccc(S(=O)(=O)NCCCCc2c[nH]cn2)cc1`, the inhibition in experiment [4] worked out at 32%. In experiment [6], this compound yielded an ED50 of 3 mg/kg. Moreover, the Kb in experiment [1] is 15.8 nM. In addition, the Ki in experiment [2] was 16.5 nM.
Take `O=S(=O)(NCCCCc1c[nH]cn1)c1ccc(OC(F)(F)F)cc1`: the ED50 result in experiment [5] is “inactive”. Moreover, in experiment [1], the Kb is 10 nM. Further, the Ki in experiment [2] was found to be 7 nM.
`O=S(=O)(NCCCCCc1c[nH]cn1)c1ccc(OC(F)(F)F)cc1` registered an inhibition in experiment [4] of 1%. In addition, in experiment [1], the Kb was 10 nM. The same compound returned a Ki in experiment [2] of 24.3 nM.
